Assay [1] deals with α-MHC mRNA in heart tissue. In words: Pharmacodynamics in PTU induced hypothyroidism SD rat model: heart α-MHC mRNA. It is filed as in vivo. As to conditions: high dose; PTU induced hypothyroidism SD rats, single dose, mRNA at 24h; *Assumed Emax. Here is the method:
(§1) Thyroid hormones (THs) affect growth, metabolism, and the physiological function of nearly all organs. Biological activity arises from activation of nuclear hormone receptors (Thyroid hormone receptors, THRs), which in turn modulate the expression of numerous target genes. Therefore, the expression of target gene in liver and heart can be used to determine tissue selective THR activation. PTU induced hypothyroidism SD rats were treated with a single dose of THR agonists, mRNA levels for select THR-responsive genes in liver (DIO1) and heart tissue (α-MHC) were measured at 24h (FIG. 1), with ED50 and Emax shown in Table 27 below.
(§2) Male SD rats (˜180 g) were housed 3 per cage under standard vivarium conditions and were fed a normal chow diet for 5˜7 days of acclimation. […] PTU were administered via drinking water to a final concentration of 0.05% (0.05g/100 ml water) for all PTU groups for 18 days. At ˜[…] of day 17, the body weight of rats was recorded, and then animals were administered via intraperitoneal injection or gavage of compounds at indicated dosages. At 24h after compound dosing, rats will be euthanized by CO2 inhaling, and liver and heart were collected for gene expression analysis. RNA was extracted from each tissue and was used for first strand cDNA with iScript cDNA Synthesis reagents (Biorad, #1708891).

In assay [2] the target is T1, THR alpha-LBD (Homo sapiens, UniProt P10827).
T1 construct: except that THR alpha-LBD of a final concentration 0.25 nM was used; purchased Invitrogen PV4687
The experiment in a line: THR-α Coactivator Peptide Recruitment Assay (LanthaScreen TR-FRET). It is filed as biochemical. Particulars: TR-FRET coactivator recruitment, THR alpha-LBD 0.25 nM; for EC50: read-out: THRα EC50. In a few lines:
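TR-FRET coactivator recruitment with THR alpha-LBD at 0.25 nM final, Fluorescein-SRC2-2 peptide 0.1 nM and Tb-labeled anti-GST antibody 2 nM; 2 h incubation at room temperature. 520/495 nm emission ratio fitted to a four-parameter sigmoidal curve to give EC50.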

Assay [3] has as its system DIO1 mRNA in liver. The experiment in a line: Pharmacodynamics in PTU induced hypothyroidism SD rat model: liver DIO1 mRNA. It counts as in vivo. Particulars: PTU induced hypothyroidism SD rats, mRNA at 24h; for Liver DIO1 Emax*: single dose, *Assumed Emax, T3 i.p. 0.12 mg/kg; for ED50: Rattus norvegicus, po, single dose by gavage, read-out: Liver DIO1 absolute ED50. As to the method:
as §1, §2

The target in assay [4] is T2, THR beta-LBD (Homo sapiens, UniProt P10828).
T2 construct: THR beta-LBD (the final concentration is 0.5 nM) was added to the 384-well assay plate; purchased Invitrogen PV4686
T2 sequence (P10828 217-461 limits assumed): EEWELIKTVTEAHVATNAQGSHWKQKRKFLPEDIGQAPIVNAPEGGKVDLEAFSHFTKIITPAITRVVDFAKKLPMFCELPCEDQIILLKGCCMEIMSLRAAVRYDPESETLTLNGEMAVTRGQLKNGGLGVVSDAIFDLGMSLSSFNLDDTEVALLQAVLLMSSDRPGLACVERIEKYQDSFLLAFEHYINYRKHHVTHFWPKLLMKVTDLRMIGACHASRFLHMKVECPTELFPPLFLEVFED
The experiment in a line: THR-β Coactivator Peptide Recruitment Assay (LanthaScreen TR-FRET). It counts as biochemical. As to conditions: TR-FRET coactivator recruitment, THR beta-LBD 0.5 nM; for EC50: read-out: THRβ EC50. In a few lines: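 GST-tagged THR beta-LBD (0.5 nM) with test compound recruits fluorescein-SRC2-2 coactivator peptide (0.1 nM), detected with Tb-anti-GST antibody (2 nM).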
In general terms: Time-resolved FRET reads energy transfer from a long-lived donor to a nearby acceptor.

Broadly, the EC50 is the concentration that produces a half-maximal response. As usually defined, the ED50 is the dose at which the effect has come halfway, by size or by number of responders.

T1 sequence (P10827 163-410 isoform P10827-2 limits assumed, other chains not shown): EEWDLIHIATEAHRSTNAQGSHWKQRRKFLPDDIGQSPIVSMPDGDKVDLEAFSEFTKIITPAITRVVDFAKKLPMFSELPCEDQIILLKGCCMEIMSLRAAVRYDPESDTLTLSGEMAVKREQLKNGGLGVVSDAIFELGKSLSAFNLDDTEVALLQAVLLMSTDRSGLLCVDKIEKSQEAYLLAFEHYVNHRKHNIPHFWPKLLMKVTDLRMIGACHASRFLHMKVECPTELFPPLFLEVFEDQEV

`O=c1[nH]c(=O)n(-c2cc(Cl)c(Oc3ccc(O)c(S(=O)(=O)N[C@H]4C[C@H](O)C4)c3)c(Cl)c2)nc1C(F)F` [Compound 23, 5-(2,6-dichloro-4-(6-(difluoromethyl)-3,5-dioxo-4,5-dihydro-1,2,4-triazin-2 (3H)-yl)phenoxy)-2-hydroxy-N-((1r,3r)-3-hydroxycyclobutyl) benzene sulfonamide]: the “Heart α-MHC Emax*” value in assay [1] is reported as under 5%. Moreover, in assay [2], the “THRα Emax” value is recorded as “A (85~110)” and the EC50 lay in the range of 2 to 200 nM. For the same molecule, in assay [3], the “Liver DIO1 Emax*” value is given as at least 80% and the ED50 turned out to be 5.4 mg/kg. Further, in assay [4], the “THRβ Emax” value is recorded as “A (90~110)” and the EC50 was under 2 nM.

As to `O=c1[nH]c(=O)n(-c2cc(Cl)c(Oc3ccc(O)c(S(=O)(=O)N[C@H]4C[C@@H](O)C4)c3)c(Cl)c2)nc1C(F)F` [Compound 42, 5-(2,6-dichloro-4-(6-(difluoromethyl)-3,5-dioxo-4,5-dihydro-1,2,4-triazin-2(3H)-yl)phenoxy)-2-hydroxy-N-((1s,3s)-3-hydroxycyclobutyl)benzenesulfonamide], in assay [1], the “Heart α-MHC Emax*” value is listed as under 5%. Moreover, in assay [2], the “THRα Emax” value is “A (85~110)” and the EC50 is 2 to 200 nM. In addition, in assay [3], the “Liver DIO1 Emax*” value is at least 80% and the ED50 amounted to 4.6 mg/kg. Also, in assay [4], the “THRβ Emax” value was “A (90~110)” and the EC50 is under 2 nM.

With `O=c1[nH]c(=O)n(-c2cc(Cl)c(Oc3cc(S(=O)(=O)NC4COC4)c(O)cn3)c(Cl)c2)nc1C(F)F` [Compound 158, 2-(2,6-dichloro-4-(6-(difluoromethyl)-3,5-dioxo-4,5-dihydro-1,2,4-triazin-2(3H)-yl)phenoxy)-5-hydroxy-N-(oxetan-3-yl)pyridine-4-sulfonamide], in assay [2], the “THRα Emax” value is “A (85~110)” and the EC50 was 2 to 200 nM. For the same molecule, in assay [4], the “THRβ Emax” value is “A (90~110)” and the EC50 was under 2 nM.

In the case of `O=c1[nH]c(=O)n(-c2cc(Cl)c(Oc3cc(S(=O)(=O)NC45CCC(O)(C4)C5)c(O)cn3)c(Cl)c2)nc1C(F)F` [Compound 159, 2-(2,6-dichloro-4-(6-(difluoromethyl)-3,5-dioxo-4,5-dihydro-1,2,4-triazin-2(3H)-yl)phenoxy)-5-hydroxy-N-(4-hydroxybicyclo[2.1.1]hexan-1-yl)pyridine-4-sulfonamide], in assay [2], the “THRα Emax” value is “B (40~85)” and the EC50 was 200 to 1000 nM. Also, in assay [4], the “THRβ Emax” value is “B (75~90)” and the EC50 was 20 to 100 nM.

Consider `O=c1[nH]c(=O)n(-c2cc(Cl)c(Oc3cc(S(=O)(=O)NC45CCC(O)(CC4)C5)c(O)cn3)c(Cl)c2)nc1C(F)F` [Compound 160, 2-(2,6-dichloro-4-(6-(difluoromethyl)-3,5-dioxo-4,5-dihydro-1,2,4-triazin-2(3H)-yl)phenoxy)-5-hydroxy-N-(4-hydroxybicyclo[2.2.1]heptan-1-yl)pyridine-4-sulfonamide], for which, in assay [2], the “THRα Emax” value is “B (40~85)” and the EC50 was over 1000 nM. Moreover, in assay [4], the “THRβ Emax” value is on record as “B (75~90)” and the EC50 was 20 to 100 nM.

Turning to `Cc1nn(-c2cc(Cl)c(Oc3cc(S(=O)(=O)N[C@H]4C[C@H](O)C4)c(O)cn3)c(Cl)c2)c(=O)[nH]c1=O` [Compound 161, 2-(2,6-dichloro-4-(6-methyl-3,5-dioxo-4,5-dihydro-1,2,4-triazin-2(3H)-yl)phenoxy)-5-hydroxy-N-((1r,3r)-3-hydroxycyclobutyl)pyridine-4-sulfonamide], in assay [2], the “THRα Emax” value is “B (40~85)” and the concentration for a half-maximal effect (EC50) was 200 to 1000 nM. In assay [4], the “THRβ Emax” value is given as “B (75~90)” and the EC50 lay in the range of 20 to 100 nM.

Consider `Cc1nn(-c2cc(Cl)c(Oc3cc(S(=O)(=O)N[C@H]4C[C@@H](O)C4)c(O)cn3)c(Cl)c2)c(=O)[nH]c1=O` [Compound 162, 2-(2,6-dichloro-4-(6-methyl-3,5-dioxo-4,5-dihydro-1,2,4-triazin-2(3H)-yl)phenoxy)-5-hydroxy-N-((1s,3s)-3-hydroxycyclobutyl)pyridine-4-sulfonamide], for which, in assay [2], the “THRα Emax” value is listed as “C (<40)” and the EC50 is over 1000 nM. In addition, in assay [4], the “THRβ Emax” value is given as “B (75~90)” and the EC50 is over 100 nM.

On to `Cc1nn(-c2cc(Cl)c(Oc3cc(S(=O)(=O)N[C@@H]4CCOC4)c(O)cn3)c(Cl)c2)c(=O)[nH]c1=O` [Compound 163, (R)-2-(2,6-dichloro-4-(6-methyl-3,5-dioxo-4,5-dihydro-1,2,4-triazin-2(3H)-yl)phenoxy)-5-hydroxy-N-(tetrahydrofuran-3-yl)pyridine-4-sulfonamide], for which, in assay [2], the “THRα Emax” value is given as “B (40~85)” and the EC50 lay within 200 to 1000 nM. Besides, in assay [4], the “THRβ Emax” value was “B (75~90)” and the EC50 was in the range of 20 to 100 nM.

Turning to `Cc1nn(-c2cc(Cl)c(Oc3cc(S(=O)(=O)N[C@H]4CCOC4)c(O)cn3)c(Cl)c2)c(=O)[nH]c1=O` [Compound 164, (S)-2-(2,6-dichloro-4-(6-methyl-3,5-dioxo-4,5-dihydro-1,2,4-triazin-2(3H)-yl)phenoxy)-5-hydroxy-N-(tetrahydrofuran-3-yl)pyridine-4-sulfonamide], in assay [2], the “THRα Emax” value is “B (40~85)” and the EC50 lay within 200 to 1000 nM. Moreover, in assay [4], the “THRβ Emax” value is “B (75~90)” and the EC50 lay in the range of 20 to 100 nM.

As for `O=c1cnn(-c2cc(Cl)c(Oc3cc(S(=O)(=O)N[C@H]4C[C@H](O)C4)c(O)cn3)c(Cl)c2)c(=O)[nH]1` [Compound 165, 2-(2,6-dichloro-4-(3,5-dioxo-4,5-dihydro-1,2,4-triazin-2(3H)-yl)phenoxy)-5-hydroxy-N-((1r,3r)-3-hydroxycyclobutyl)pyridine-4-sulfonamide], in assay [2], the “THRα Emax” value is “B (40~85)” and the EC50 is over 1000 nM. In assay [4], the “THRβ Emax” value is listed as “C (<75)” and the concentration for a half-maximal effect (EC50) lay within 20 to 100 nM.

As for `Cc1cc(-n2nc(C(F)F)c(=O)[nH]c2=O)cc(C)c1Oc1cc(S(=O)(=O)N[C@H]2C[C@H](O)C2)c(O)cn1` [Compound 166, 2-[4-[6-(difluoromethyl)-3,5-dioxo-1,2,4-triazin-2-yl]-2,6-dimethyl-phenoxy]-5-hydroxy-N-(3-hydroxycyclobutyl)pyridine-4-sulfonamide], in assay [2], the “THRα Emax” value is reported as “B (40~85)” and the EC50 was over 1000 nM. In assay [4], the “THRβ Emax” value is reported as “B (75~90)” and the EC50 is over 100 nM.

For `Cc1cc(-n2nc(C(F)F)c(=O)[nH]c2=O)cc(Cl)c1Oc1cc(S(=O)(=O)N[C@H]2C[C@H](O)C2)c(O)cn1` [Compound 167, 2-[2-chloro-4-[6-(difluoromethyl)-3,5-dioxo-1,2,4-triazin-2-yl]-6-methyl-phenoxy]-5-hydroxy-N-(3-hydroxycyclobutyl)pyridine-4-sulfonamide], in assay [2], the “THRα Emax” value is on record as “A (85~110)” and the EC50 is 200 to 1000 nM. In assay [4], the “THRβ Emax” value is reported as “A (90~110)” and the EC50 lay in the range of 2 to 20 nM.

Take `C[C@]1(NS(=O)(=O)c2cc(Oc3c(Cl)cc(-n4nc(C(F)F)c(=O)[nH]c4=O)cc3Cl)ncc2O)C[C@H](O)C1` [Compound 168, 2-[2,6-dichloro-4-[6-(difluoromethyl)-3,5-dioxo-1,2,4-triazin-2-yl]phenoxy]-5-hydroxy-N-(3-hydroxy-1-methyl-cyclobutyl)pyridine-4-sulfonamide]: in assay [2], the “THRα Emax” value is recorded as “A (85~110)” and the EC50 was 2 to 200 nM. Also, in assay [4], the “THRβ Emax” value was “A (90~110)” and the EC50 fell in the range of 2 to 20 nM.

Take `CN1CC(NS(=O)(=O)c2cc(Oc3c(Cl)cc(-n4nc(C(F)F)c(=O)[nH]c4=O)cc3Cl)ncc2O)C1` [Compound 169, 2-(2,6-dichloro-4-(6-(difluoromethyl)-3,5-dioxo-4,5-dihydro-1,2,4-triazin-2(3H)-yl)phenoxy)-5-hydroxy-N-(1-methylazetidin-3-yl)pyridine-4-sulfonamide]: in assay [2], the “THRα Emax” value is given as “C (<40)” and the EC50 is over 1000 nM. Moreover, in assay [4], the “THRβ Emax” value is given as “C (<75)” and the EC50 is over 100 nM.

In the case of `N[C@@H](Cc1cc(I)c(Oc2ccc(O)c(I)c2)c(I)c1)C(=O)O` [Compound T3, reference compound], the “Liver DIO1 Emax*” value in assay [3] is on record as 100%.

The values above are taken from patent publication US12291518B2, “Thyroid hormone receptor agonists and use thereof” (Eccogene Inc., priority 2020, dated 2025).
